The source of these data is patent publication US20220236187A1, “SYSTEM AND METHOD FOR REAL-TIME MULTICOLOR SHORTWAVE INFRARED FLUORESCENCE IMAGING” (HELMHOLTZ ZENTRUM MÜNCHEN - DEUTSCHES FORSCHUNGSZENTRUM FÜR …, priority 2019, published 2022).

A short description of data set [1]: In vivo brightness comparison of JuloChrom5 (10) and ICG in a single mouse. Also noted: species or system mice. The settings on record: compared to the PEG-coated micelles. The source says:
(§1) FIG. 21: Brightness comparisons in imaging configuration. a-c) Images upon 785 (33 mWcm^−2), 892 (54 mWcm^−2), and 968 (77 mWcm^−2) nm ex. and LP1000 nm detection (variable exposure time (ET) and frame rate) of capillaries containing equal moles of dyes 4-6, 9, 10 (lipid formulations) and benchmark dyes ICG (free) and MeOFlav7 (abbreviated MF7) (lipid formulation) when dissolved in water (a), fetal bovine serum (FBS) (b), or sheep blood (c). […] (e) and after injection of JuloChrom5 (10) (50 nmol) upon 982 nm (104 mWcm^−2) ex. (f). Collect: LP1000 nm, 2.0 ms ET, 150 fps (for 2-channel collection, see SI for images from all channels).
To most closely assess the brightness performance for SWIR imaging, an in vivo comparative experiment between the highest performing chromenylium dye, JuloChrom5 (10) and ICG was designed. To note, while many SWIR imaging agents have been compared to the benchmark dye, ICG, these comparisons are often difficult due to the diverse photophysical and biological properties of different emitters. In this case, the in vivo comparison is complicated by differing biodistribution properties of the two dyes. […] Normalizing each acquisition to the injection start time, the signal over time over the whole mouse (yellow), a section of the vasculature (red), and the liver (black) were quantified. […]

Data set [2] can be described thus: Excitation-multiplexed SWIR imaging in mice, probe distribution (Example 9). The class given is in vivo. The settings on record: 80 minutes after i.p. 10 micelles and i.v. 3 micelles and ICG; top view. The source says:
To perform excitation multiplexing in the SWIR, a custom SWIR imaging configuration with three lasers and an InGaAs detector was built (FIG. 13B). With laser lines at 785 nm, 980 nm, and 1064 nm, tailored excitation could uniquely excite three fluorophores. Emission is detected in a color-blind fashion using identical filters and settings in the SWIR, providing high-resolution images. To enable this process to occur in real-time, we constructed an electronic triggering system which is coupled to both the camera and laser excitation sources. […]
Physiological properties such as heart-rate, respiratory rate, thermoregulation, metabolism, and the function of the central nervous system, are highly impacted by anesthesia. […] Due to frame rates which are faster than macroscopic movements in animals, the heart rate and respiratory rate in awake animals can be quantified. […] The method allows physiology to be monitored with minimal perturbation of the animal's usual environment. […] The real-time collection can be visualized by observing close time-points in which a continuous movement is monitored without visual aberrations (FIG. 16A). In addition to assessing natural physiology, these tools foreshadow more complex experiments in which the location of multiple probes could be monitored over long periods of time, non-invasively and without the need for anesthesia. […]

Data set [3] is described as follows: Two-color SWIR lymphatic imaging of a narcotized mouse (Example 2, Demonstration III). The class given is in vivo. The settings on record: injected intradermally into footpads and base of tail; after 30 min, 40 min. The source says:
The FIGS. 9A, 9B and 9C show merged frames representing the lymphatic system of a narcotized mouse in two-color real-time acquisition. With detector exposure time of 20 ms, a frame rate of 21 fps is achieved with the developed system. […] Then, Julo 7 micelles have been injected intravenously. The lymphatic functional imaging is later enhanced by the assignment of two distinct colors.
Light Source (785 nm laser & 1064 nm laser sequentially triggered, pulse length=21 ms)→Collimator→Mirror→1100 nm Short-pass Filter→Engineered Diffuser→Sample. The arrows represent the light path. Accordingly, the light path has been set up as follows: from Light Source (785 nm laser & 1064 nm laser sequentially triggered, pulse length=21 ms) to Collimator to Mirror to 1100 nm Short-pass Filter to Engineered Diffuser to Sample.
Sample→3xf=500 mm C-Coated lenses→Silver Mirror→1000 nm Long-pass Filter→2xf=200 mm C-coated lenses→InGaAs Detector. The arrows represent the light path. Accordingly, the light path has been set up as follows: from Sample to 3xf=500 mm C-Coated lenses to Silver Mirror to 1000 nm Long-pass Filter to 2xf=200 mm C-coated lenses to InGaAs Detector.
Sample: ICG (aqueous, 13 nmol intradermally [footpads and base of tail]) and Julo7 (micelles, 70 nmol intravenously).

For data set [4] the following is noted: stated as established property; cited from earlier work.
A short description of data set [5]: Brightness comparison of micelle-formulated dyes and ICG in water, fetal bovine serum and sheep blood. The class given is physicochemical. The settings on record: dyes in micelles, ICG free.
Description: as §1
Next, to more closely approximate in vivo performance, each chromenylium or flavylium dye were formulated into water-soluble PEG-phospholipid micelles, a biocompatible nanomaterial for delivery. Brightness of solutions with equal dye concentration (flavylium and chromenylium dyes in micelles; ICG) were evaluated when dispersed in water (e.g., FIG. 20a), fetal bovine serum (FBS) (e.g., FIG. 20b), and sheep blood (e.g., FIG. 20c).
Results changed drastically compared to those in the organic solvent experiment, likely due to variable amounts of aggregation or interactions within the micelles and/or biological media. […]

Data set [6] is described as follows: Brightness comparison in organic solvent in the excitation-multiplexed SWIR imaging configuration. The class given is physicochemical. Conditions: 0.25 μM, 785/892/968 nm excitation, 1000 nm LP. The source says:
While photophysical characterization can be essential for understanding chromophore properties, when moving to an in vivo system, there are many additional parameters that might contribute to a dye's performance, including delivery strategy, interaction with biological tissues, and the excitation and detection parameters of the imaging configuration. To begin to understand the translation to in vivo experiments, an excitation-multiplexed SWIR imaging configuration was used to compare emission of the fluorophores when excited at relevant wavelengths. The imaging set-up includes excitation lasers that correspond to each channel (e.g., i-iv, FIG. 17a) (785, 892, and 968, 1065 nm) with irradiation scaled to the approved values, as outlined by the International Commission on Non-Ionizing Radiation Protection (ICNIRP) guidelines. The guidelines indicate that within the spectral region of interest (˜785 nm-1065 nm) higher photon doses are tolerated as the wavelength is increased. […] The excitation lasers are diffused and delivered uniformly to the biological sample. […]
To compare brightness of the chromenylium dyes in vitro, dyes 5, 6, 9 and 10 were dissolved in organic solvent (DCM) at 0.25 μM, and measured the emission, with 1000 nm longpass (LP) filtering on an InGaAs camera upon sequential excitation with 785, 892, and 968 nm lasers. […]

The conditions of data set [7]: value used as reference for relative measurements; cited from earlier work.
The conditions of data set [8]: value used as reference for relative measurements; cited from earlier work. This is another data set of the same source.

The structures appear in SMILES notation. Read-outs that look alike come from different tables or passages of the source.

With `CC1(C)C(/C=C/C=C/C=C/C=C2\N(CCCCS(=O)(=O)O)c3ccc4ccccc4c3C2(C)C)=[N+](CCCCS(=O)(=O)[O-])c2ccc3ccccc3c21` [ICG, indocyanine green], the hepatic clearance time entry in data set [1] is recorded as “faster hepatic clearance time”. Also, the “location of probe in awake mouse” value in data set [2] is recorded as “exclusively in the liver”. Moreover, in data set [3], the “conduction through the lymphatic vessels” value is reported as “efficiently conducted through the lymphatic vessels”. Also, the “clearance of ICG” value in data set [4] was “clears efficiently and exclusively from the liver”. In data set [5], the “change of brightness in FBS and blood compared to water” value is given as “increase in brightness”. The “SWIR brightness in water, FBS and blood” value in data set [5] (equal dye concentration) was “brightest SWIR emitter upon 785 nm excitation in both FBS and blood”. For the same molecule, the “ranking of SWIR emission per excitation channel” value in data set [6] was “best performers in channels i and ii”.
As to `ClC1=C(/C=C/c2cc(-c3ccccc3)[s+]c3ccccc23)CCC/C1=C\C=C1/C=C(c2ccccc2)Sc2ccccc21.[O-][Cl+3]([O-])([O-])[O-]` [IR-26], the “ΦF of reference standard IR-26” value in data set [7] and in data set [8] was 0.05% throughout.
